The source of these data is patent US20070275994A1, “Novel Antinfective Compounds” (priority 2003, published 2007).

Data set [1] concerns Bacillus pumilus MTCC 1607. The experiment in a line: MIC by microbroth dilution, Bacillus pumilus MTCC 1607. In kind it is cell-based. The settings on record: 37° C., 16-18 hrs; for MIC: MTCC1607, Mueller Hinton Broth, read-out: MIC, in vitro activity, Bp; for MIC, in vitro activity, Bp: Mueller Hinton Broth. The method, then:
(§1) The antibacterial spectrum and potency of a particular compound may be determined in a standard test system.
(§2) The minimum inhibitory concentrations (MIC's) of the compounds for the microorganisms listed in Table A were determined by preparing working solution for each compound of concentration of 128 μg/ml after dissolving it in DMSO. […] 30 μg/ml of Standard suspension of each organism which was prepared with turbidity equivalent to the 1:10 diluted 0.5 McFarland standard with density 10^7 CFU/ml, was added to each well to get approximately a density of 10^5 CFU/ml. These 96-well Tissue culture plate containing the test samples and positive and negative controls, were incubated at 37° C. for 16-18 hrs. The wells were visually inspected for growth and were also read at 630 nm by Automated Microplate Reader [(EL800) Trinity Biotech.] and the MIC's were recorded as the lowest concentration of drug which inhibits the growth of bacteria.
(§3) • Bp: Bacillus pumilus MTCC 1607 • S.e.: Staphylococcus epidermidis MTCC 155 • S.p.: Staphylococcus pyogenes MTCC 442 • S.a.1: Staphylococcus aureus MTCC 96 • S.a.2: Staphylococcus aureus ATCC 14154 • S.a.3: Staphylococcus aureus ATCC 25923 • S.a.4: Staphylococcus aureus ATCC 29213 • E.f.1: Enterococcus faecalis MTCC 439 • E.f.2: Enterococcus faecalis ATCC 14506 • K.0p.: Klebsiella pneumoniae ATCC 10031

Data set [2] deals with Staphylococcus epidermidis MTCC 155. The experiment in a line: MIC by microbroth dilution, Staphylococcus epidermidis MTCC 155. Particulars: MTCC155, Mueller Hinton Broth, 37° C., 16-18 hrs, read-out: MIC, in vitro activity, Se. It counts as cell-based. The method, then: as §1, §2, §3
Data set [3] has as its system Staphylococcus pyogenes MTCC 442. The experiment in a line: MIC by microbroth dilution, Staphylococcus pyogenes MTCC 442. In kind it is cell-based. The settings on record: MTCC442, Mueller Hinton Broth, 37° C., 16-18 hrs, read-out: MIC, in vitro activity, Sp. The method, then: as §1, §2, §3
Data set [4] has as its system Staphylococcus aureus MTCC 96. The experiment in a line: MIC by microbroth dilution, Staphylococcus aureus MTCC 96. It counts as cell-based. The settings on record: 37° C., 16-18 hrs; for MIC: MTCC96, Mueller Hinton Broth, read-out: MIC, in vitro activity, Sa1; for MIC, in vitro activity, Sa1: Mueller Hinton Broth. As to the method: as §1, §2, §3
The subject of data set [5] is Staphylococcus aureus ATCC 14154. The experiment in a line: MIC by microbroth dilution, Staphylococcus aureus ATCC 14154. It counts as cell-based. The settings on record: ATCC14154, Mueller Hinton Broth, 37° C., 16-18 hrs, read-out: MIC, in vitro activity, Sa2. As to the method:
as §1, §2, §3

For data set [6], the system named is Staphylococcus aureus ATCC 25923. The experiment in a line: MIC by microbroth dilution, Staphylococcus aureus ATCC 25923. In kind it is cell-based. Particulars: ATCC25923, Mueller Hinton Broth, 37° C., 16-18 hrs, read-out: MIC, in vitro activity, Sa3. The method, then:
as §1, §2, §3

Data set [7] deals with Staphylococcus aureus ATCC 29213. The experiment in a line: MIC by microbroth dilution, Staphylococcus aureus ATCC 29213. It counts as cell-based. Particulars: ATCC29213, Mueller Hinton Broth, 37° C., 16-18 hrs, read-out: MIC, in vitro activity, Sa4. The method, then:
as §1, §2, §3

Data set [8] deals with Enterococcus faecalis MTCC 439. The experiment in a line: MIC by microbroth dilution, Enterococcus faecalis MTCC 439. It counts as cell-based. The settings on record: 37° C., 16-18 hrs; for MIC: MTCC439, Mueller Hinton Broth, read-out: MIC, in vitro activity, Ef1. The method, then: as §1, §2, §3
Data set [9] relates to Enterococcus faecalis ATCC 14506. The experiment in a line: MIC by microbroth dilution, Enterococcus faecalis ATCC 14506. It counts as cell-based. Particulars: ATCC14506, Mueller Hinton Broth, 37° C., 16-18 hrs, read-out: MIC, in vitro activity, Ef2. The method, then:
as §1, §2, §3

The test system of data set [10] is Pseudomonas aeruginosa ATCC 27853. The experiment in a line: MIC by microbroth dilution, Pseudomonas aeruginosa ATCC 27853. In kind it is cell-based. The settings on record: 37° C., 16-18 hrs; for MIC: ATCC27853, Mueller Hinton Broth, read-out: MIC, in vitro activity, Pa; for MIC, in vitro activity, Pa: Mueller Hinton Broth. As to the method: as §1, §2
P.a.: Pseudomonas aeruginosa ATCC 27853

In brackets after ≈: the same amount, converted by molar mass. Bounds are passed on as bounds.

`O=C(O)c1cn(C2CC2)c2cc(N3CCNCC3)c(F)cc2c1=O` [Ciprofloxacin, ciprofloxacin, reference compound]: the MIC was below 0.12 µg/mL in data set [1]; 0.25 µg/mL (≈ 0.754 µM) in data set [2]; 0.5 µg/mL (≈ 1.51 µM) in data set [3]; 0.25 µg/mL (≈ 0.754 µM) in [4]; 0.5 µg/mL (≈ 1.51 µM) in data set [5]; 0.5 µg/mL (≈ 1.51 µM) in [6]. Moreover, the MIC in data set [7] turned out to be 0.25 µg/mL (≈ 0.754 µM); in data set [8], 0.25 µg/mL (≈ 0.754 µM); in data set [9] it was 0.25 µg/mL (≈ 0.754 µM); in data set [10], 0.5 µg/mL (≈ 1.51 µM).
Turning to `COc1c(N2CCc3sccc3C2)c(F)cc2c(=O)c(C(=O)O)cn(C3CC3)c12` [Compound 13, 1-Cyclopropyl-7-(6,7-dihydro-4H-thieno[3,2-c]pyridin-5-yl)-6-fluoro-8-methoxy-4-oxo-1,4-dihydro-quinoline-3-carboxylic acid], the melting point lay within 173 to 175 °C. For the same molecule, in [1], the MIC was at most 0.12 µg/mL. In data set [2], the MIC was at most 0.12 µg/mL. In data set [3], the minimum inhibitory concentration (MIC) is at most 0.12 µg/mL. The MIC in [4] was at most 0.12 µg/mL. Further, in data set [5], the minimal inhibitory concentration (MIC) was at most 0.12 µg/mL. In addition, in data set [6], the minimal inhibitory concentration (MIC) was 0.5 µg/mL (≈ 1.21 µM). Further, the MIC in data set [7] came to 0.25 µg/mL (≈ 0.603 µM). Moreover, the MIC in data set [8] was at most 0.12 µg/mL. Moreover, the MIC in data set [9] was determined as 0.25 µg/mL (≈ 0.603 µM). Further, the MIC in data set [10] turned out to be 16 µg/mL (≈ 38.6 µM).
Regarding `O=C(O)c1cn(C2CC2)c2cc(N3CCc4sccc4C3)c(F)cc2c1=O` [Compound 14, 1-Cyclopropyl-7-(6,7-dihydro-4H-thieno[3,2-c]pyridin-5-yl)-6-fluoro-4-oxo-1,4-dihydro-quinoline-3-carboxylic acid], the minimum inhibitory concentration (MIC) in [1] is at most 0.12 µg/mL; in [2], 0.25 µg/mL (≈ 0.65 µM); in data set [4] it was 0.25 µg/mL (≈ 0.65 µM); in [5], 0.25 µg/mL (≈ 0.65 µM); in [6], 0.5 µg/mL (≈ 1.3 µM); in [7], 0.5 µg/mL (≈ 1.3 µM).
As to `COc1c(N2CCc3sccc3C2)c(F)c([N+](=O)[O-])c2c(=O)c(C(=O)O)cn(C3CC3)c12` [Compound 15, 1-Cyclopropyl-7-(6,7-dihydro-4H-thieno[3,2-c]pyridin-5-yl)-6-fluoro-8-methoxy-5-nitro-4-oxo-1,4-dihydro-quinoline-3-carboxylic acid], the MIC in data set [1] worked out at 0.25 µg/mL (≈ 0.544 µM); in data set [4], 1 µg/mL (≈ 2.18 µM).
With `O=C(O)c1cn(C2CC2)c2c(F)c(N3CCc4sccc4C3)c(F)c(F)c2c1=O` [Compound 16, 1-Cyclopropyl-7-(6,7-dihydro-4H-thieno[3,2-c]pyridin-5-yl)-5,6,8-fluoro-4-oxo-1,4-dihydro-quinoline-3-carboxylic acid], the “MIC, in vitro activity, Bp” value in data set [1] came to 0.25 µg/mL (≈ 0.595 µM). In addition, the “MIC, in vitro activity, Sa1” value in data set [4] was 0.25 µg/mL (≈ 0.595 µM). Further, the “MIC, in vitro activity, Pa” value in [10] is above 64 µg/mL.
Consider `Nc1c(F)c(N2CCc3sccc3C2)c(F)c2c1c(=O)c(C(=O)O)cn2C1CC1` [Compound 17, 5-Amino-1-cyclopropyl-7-(6,7-dihydro-4H-thieno[3,2-c]pyridin-5-yl)-6,8-difluoro-4-oxo-1,4-dihydro-quinoline-3-carboxylic acid], for which the MIC in [1] is at most 0.12 µg/mL; in data set [2] it was at most 0.12 µg/mL; in data set [3], at most 0.12 µg/mL; in [4], at most 0.12 µg/mL; in data set [5], at most 0.12 µg/mL; in [6], 0.5 µg/mL (≈ 1.2 µM). Moreover, the MIC in data set [7] is 0.25 µg/mL (≈ 0.599 µM); in [8] it was at most 0.12 µg/mL; in [9], 0.25 µg/mL (≈ 0.599 µM); in data set [10] it was 16 µg/mL (≈ 38.3 µM).
For `COc1c(N2CCc3sc([N+](=O)[O-])cc3C2)c(F)cc2c(=O)c(C(=O)O)cn(C3CC3)c12` [Compound 19, 1-Cyclopropyl-6-fluoro-8-methoxy-7-(2-nitro-6,7-dihydro-4H-thieno[3,2-c]pyridin-5-yl)-4-oxo-1,4-dihydro-quinoline-3-carboxylic acid], the minimum inhibitory concentration (MIC) in data set [1] is at most 0.12 µg/mL; in [2], at most 0.12 µg/mL; in data set [3] it was at most 0.12 µg/mL; in [4], 0.25 µg/mL (≈ 0.544 µM); in data set [8], at most 0.12 µg/mL; in data set [9] it was 0.25 µg/mL (≈ 0.544 µM). Besides, the MIC in data set [10] turned out to be 1 µg/mL (≈ 2.18 µM).
As to `COc1c(N2CCc3sc(C=O)cc3C2)c(F)cc2c(=O)c(C(=O)O)cn(C3CC3)c12` [Compound 20, 1-Cyclopropyl-6-fluoro-7-(2-formyl-6,7-dihydro-4H-thieno[3,2-c]pyridin-5-yl)-8-methoxy-4-oxo-1,4-dihydro-quinoline-3-carboxylic acid], the MIC in data set [1] is at most 0.12 µg/mL; in data set [2], 0.25 µg/mL (≈ 0.565 µM); in data set [3], 0.25 µg/mL (≈ 0.565 µM); in data set [4], at most 0.12 µg/mL; in data set [8] it was at most 0.12 µg/mL; in data set [10], 8 µg/mL (≈ 18.1 µM).
`COc1c(N2CCc3sc(CO)cc3C2)c(F)cc2c(=O)c(C(=O)O)cn(C3CC3)c12` [Compound 21, 1-Cyclopropyl-6-fluoro-7-(2-hydroxymethyl-6,7-dihydro-4H-thieno[3,2-c]pyridin-5-yl)-8-methoxy-4-oxo-1,4-dihydro-quinoline-3-carboxylic acid]: the minimal inhibitory concentration (MIC) in data set [1] was at most 0.12 µg/mL; in data set [2], 0.25 µg/mL (≈ 0.562 µM); in data set [4], 0.25 µg/mL (≈ 0.562 µM); in data set [8], 0.25 µg/mL (≈ 0.562 µM); in data set [10], 16 µg/mL (≈ 36 µM).
For `COc1c(N2CCc3sc(C(=O)O)cc3C2)c(F)cc2c(=O)c(C(=O)O)cn(C3CC3)c12` [Compound 22, 7-(2-carboxy-6,7-dihydro-4H-thieno[3,2-c]pyridin-5-yl)-1-cyclopropyl-6-fluoro-8-methoxy-4-oxo-1,4-dihydro-quinoline-3-carboxylic acid], the MIC was 0.5 µg/mL (≈ 1.09 µM) in data set [1], 4 µg/mL (≈ 8.72 µM) in data set [4], 8 µg/mL (≈ 17.4 µM) in data set [8] and above 16 µg/mL in [10].
With `COc1c(N2CCc3occc3C2C)c(F)cc2c(=O)c(C(=O)O)cn(C3CC3)c12` (stereo not drawn) [Compound 23, 1-Cyclopropyl-6-fluoro-8-methoxy-7-(4-methyl-6,7-dihydro-4H-fluoro[3,2-c]pyridin-5-yl)-4-oxo-1,4-dihydro-quinoline-3-carboxylic acid], the “MIC, in vitro activity, Bp” value in data set [1] is on record as “≦0.12 μg/ml”. In addition, the “MIC, in vitro activity, Sa1” value in data set [4] was 8 µg/mL (≈ 19.4 µM). In data set [8] (Mueller Hinton Broth), the “MIC, in vitro activity, Ef1” value stood at 2 µg/mL (≈ 4.85 µM). The “MIC, in vitro activity, Pa” value in [10] is above 16 µg/mL.
Turning to `COc1c(N2CCNC(C)C2)c(F)cc2c(=O)c(C(=O)O)cn(C3CC3)c12` (stereo not drawn) [Gatifloxacin, gatifloxacin, reference compound], the MIC in data set [1] is at most 0.12 µg/mL; in [2], at most 0.12 µg/mL; in [3], 0.5 µg/mL (≈ 1.33 µM); in [4] it was at most 0.12 µg/mL; in data set [5] it was at most 0.12 µg/mL; in [6] it was 0.25 µg/mL (≈ 0.666 µM). Moreover, the MIC in [7] was found to be 0.12 µg/mL (≈ 0.32 µM); in data set [8], 0.5 µg/mL (≈ 1.33 µM); in [9] it was 0.5 µg/mL (≈ 1.33 µM); in [10], 4 µg/mL (≈ 10.7 µM).
